Results on 15 compounds are retold here after patent US20040248769A1, “Enzyme inhibitors for inactivating allergens” (priority 2001, published 2004).

Test [1] concerns Cat1 S3 fur extract proteolytic activity. The test is described as follows: Inhibition of the proteolytic activity in animal fur by proteinase inhibitors. The settings on record: Cat1 S3, 10 μM inhibitor. Format: biochemical, cat. As to the method:
(§1) […] The assay was begun with substrate and sample and a continuous rate of product formation (nM/min) was measured (v0) for 15 min. The inhibitor was added to a final concentration of 10 μM in negligible volume from stock solution in dimethyl sulfoxide. The assay was continued for a further 15 min.
(§2) Under these conditions reversible inhibition can be measured as the new steady state (v1) with percentage inhibition being 1−(v1/v0)×100. Irreversible inhibition is measured as a second order rate constant and is time dependent but as long as the inhibitor is present in molar excess should always lead eventually to total inhibition. No distinction was made and inhibition is presented as a percentage of full activity. See results table 4.

Test [2] has the same test system. The test is described as follows: Determination of Ki for the inhibition of Cat1 S3 by leupeptin. Format: biochemical, cat. Set-up: V1: unit not given beside the values. As to the method: The assays were carried out as described above, using 5 μM Z-Gly-Gly-Arg-NHMec as substrate in assay buffer. The assay was begun with substrate and sample and a continuous rate of product formation (nM/min) was measured (v0) for 15 min. […] The assay was continued for a further 15 min.
as §2

Test [3] has as its system Cat2 S1 fur extract proteolytic activity. As to the kind of experiment: Proteolytic activity of fur extract against NHMec substrates. Format: biochemical, cat. Conditions: sample Cat2 S1, 5 μM substrate, 37° C., pH 7.5. As to the method: (§3) A clean pet brush was used to brush three common English domestic cats. Fur from guinea pigs, rabbit, dogs and horse was collected in the same way. A different brush was used for each species and between brushings these were cleaned thoroughly in a denaturing detergent solution (Fairy® detergent) and then ethanol. The brushings were transferred to a sterile universal container and extracted by shaking in an extraction buffer, 50 mM Tris.HCl, 5 mM CaCl2, pH 7.5 (0.1 g/ml). The solution was recovered by centrifugation and stored at −20° C. in aliquots. Saliva was collected from a mastiff-type dog and stored frozen in aliquots until assayed. Sample aliquots were assayed for proteolytic activity using fluorometric blocked peptidylaminomethylcoumarylamide substrates in the cuvette of a Perkin Elmer fluorimeter at 37° C. The fluorimeter was standardised with a known concentration of methylcoumarin, and the assays were designed so that no more than 10% substrate hydrolysis occurred.
(§4) Assays were performed in assay buffer; 50 mM Tris.HCl, 5 mM CaCl2, 0.1% CHAPS, pH 7.5. Data were collected in real-time on a personal computer using the Flusys software package.
(§5) In the first series of experiments the sample (12 μl) was assayed against a range of serine and cysteine proteinase aminomethylcoumarylamide (NHMec) substrates (obtained commercially from Bachem) under standard conditions of 5 μM substrate concentration (from a 100-fold stock solution in dimethyl sulfoxide) to give a final volume of 120 μl. After addition of substrate the rate without sample was determined (which in all cases was zero), after which the sample was applied and the progress of the reaction was followed for a further 15 min. The slope obtained (fluorescence vs time) was analysed by linear regression and converted to rate of product formation (nM/min) see results table 2.

Test [4] concerns Cat1 S1 fur extract proteolytic activity. The description is as above. Format: biochemical, cat. The settings on record: sample Cat1 S1, 5 μM substrate, 37° C., pH 7.5. As to the method: as §3, §4, §5
Test [5] relates to G.pig2 S1 fur extract proteolytic activity. The test is described as follows: Inhibition of the proteolytic activity in animal fur by proteinase inhibitors. Format: biochemical, guinea pig. The settings on record: G.pig2 S1, 10 μM inhibitor, substrate 2 Z-Phe-Arg-NHMec. As to the method:
as §1, §2

The subject of test [6] is Horse1 S2 fur extract proteolytic activity. The description is as above. It is filed as biochemical, horse. Conditions: Horse1 S2, 10 μM inhibitor, substrate 2 Z-Phe-Arg-NHMec. The method, then: as §1, §2
Test [7] concerns Horse1 S1 mane extract proteolytic activity. Described as above. Format: biochemical, horse. Conditions: Horse1 S1, 10 μM inhibitor, substrate 2 Z-Phe-Arg-NHMec. As to the method: as §1, §2
Test [8] deals with Dog2 S1 fur extract proteolytic activity. The description is as above. Format: biochemical, dog. The settings on record: Dog2 S1, 10 μM inhibitor, substrate 2 Z-Phe-Arg-NHMec. As to the method:
as §1, §2

Test [9] deals with Cat1 S3 fur extract proteolytic activity. As to the kind of experiment: Proteolytic activity of fur extract against NHMec substrates. Conditions: sample Cat1 S3, 5 μM substrate, 37° C., pH 7.5. It is filed as biochemical, cat. As to the method:
as §3, §4, §5

Another test has as its system cat fur enzyme(s). The test is described as follows: Rates of cleavage at varying substrate concentration and Km. Conditions: for Rate: cat fur sample. Format: biochemical. As to the method: as §5
A rough estimate of the Km for the cleavage of Z-Gly-Gly-Arg-NHMec and of Z-Phe-Arg-NHMec by the cat fur enzyme(s) were determined using the same procedure with varying concentrations of these substrates see results table 3.
As the activity follows normal Michaelis-Menten kinetics it is clear that it is due to the activity of one or more biological catalysts or enzymes.

Where [10] appears, read: substrate 1 Z-Gly-Gly-Arg-NHMec.

“And” between values parts separate entries of the source, which are not always exact repeats. Identical values can stand only once. *1 amine or outer side, *2 acyl side, *3 side chain or, on linkers, in order; H or OH if unused. Where a SMILES comes first, the peptide text is derived from it. [ ]: non-standard residue; d: D form. The star is where a group is joined. AMC = Cc1cc(=O)oc2cc(N*)ccc12; pGlu = O=C1CC[C@@H](C(=O)O)N1; Suc = O=C(CCC(=O)[*:2])[*:1]; Bz = O=C(c1ccccc1)*; CH2Cl = ClC*

In the case of `O=c1oc(Cl)c(Cl)c2ccccc12` [3,4-Dichloroisocoumarin], in test [1] (setting [10]), the % Inhibition (as a rule, the share of the control response that was lost under treatment) was determined as 35.4% and the “v1 (rate after inhibitor)” value is 1.837 nM/min.
As for `CC(=O)N[C@@H](CC(C)C)C(=O)N[C@@H](CC(C)C)C(=O)N[C@H](C=O)CCCNC(=N)N` [Leupeptin, acetyl-Leu-Leu-Arg-CHO], the “% Inhibition” value turned out to be 100% in test [1] (setting [10]); 25.0% in [2] (Cat1 S3, [I] 0.5 nM); 24.3% in test [2] (Cat1 S3, [I] 1.0 nM); 37.9% in test [2] (Cat1 S3, [I] 5.0 nM); 53.2% in [2] (Cat1 S3, [I] 10.0 nM); 68.7% in [2] (Cat1 S3, [I] 50.0 nM). In test [2] (Cat1 S3, [I] 100.0 nM), the “% Inhibition” value is 78.0%. Further, the “v1 (rate after inhibitor)” value in test [1] (setting [10]) was found to be 0 nM/min. Also, the V1 in test [2] (Cat1 S3, [I] 0.5 nM) is recorded as 6.0; in test [2] (Cat1 S3, [I] 1.0 nM) it was 5.6; in test [2] (Cat1 S3, [I] 5.0 nM) it was 4.9; in test [2] (Cat1 S3, [I] 10.0 nM), 4.4; in test [2] (Cat1 S3, [I] 50.0 nM), 2.6; in test [2] (Cat1 S3, [I] 100.0 nM), 1.8. Moreover, the Ki in test [2] (found using the Enzfitter software package, read-out: Kl for the inhibition of Cat1 S3) was 2.64 nM.
Turning to `Cc1cc(=O)oc2cc(NC(=O)[C@H](CCCCN)NC(=O)[C@H](Cc3ccccc3)NC(=O)[C@H](C)NC(=O)CCC(=O)O)ccc12` [Suc-Ala-Phe-Lys-NHMec] (Suc-Ala-Phe-Lys-{AMC}), the Rate entry in [3] and in test [4] was “No activity” in each case.
`N=C(N)SCCCOc1oc(=O)c2cc(N)ccc2c1Cl` [ACITIC, 7-amino-4-chloro-3-(-3-isothiureido-propoxy) isocoumarin]: the “% Inhibition” value came out at 100% in test [1] (setting [10]); 94.8% in [5]; 100% in test [6]; 100% in test [7]; 71.2% in test [8]. Moreover, the “v1 (rate after inhibitor)” value in [1] (setting [10]) is listed as 0.002 nM/min; in [5] it was 0.964 nM/min; in test [6] it was 0 nM/min; in test [7], 0 nM/min; in test [8], 0.184 nM/min.
As for `Cc1cc(=O)oc2cc(NC(=O)[C@H](CCCN=C(N)N)NC(=O)[C@@H](NC(=O)[C@H](Cc3ccccc3)NC(=O)c3ccccc3)C(C)C)ccc12` [Bz-Phe-Val-Arg-NHMec] (Bz-Phe-Val-Arg-{AMC}), the Rate in test [9] came to 32.1 nM/min.
Turning to `NC(N)=NCCC[C@H](NC(=O)CNC(=O)[C@@H](N)CCC(=O)O)C(=O)CCl` [H-Glu-Gly-Arg-chloromethane] (H-Glu-Gly-Arg-CH2Cl), in [1] (setting [10]), the “% Inhibition” value amounted to 98.7% and the “v1 (rate after inhibitor)” value turned out to be 0.143 nM/min.
With `Cc1cc(=O)oc2cc(NC(=O)[C@@H](NC(=O)[C@@H]3CCCN3C(=O)[C@H](C)NC(=O)[C@H](C)NC(=O)CCC(=O)O)C(C)C)ccc12` [Suc-Ala-Ala-Pro-Val-NHMec] (Suc-AAPV-{AMC}), the Rate result in test [3] and in [4] was “No activity” each time.
As for `N=C(N)SCCCOc1oc(=O)c2cc(NC(=O)NCc3ccccc3)ccc2c1Cl` [PhCH2NHCONH-CiTPrOIC], in [1] (substrate 2 Z-Phe-Arg-NHMec), the “% Inhibition” value is on record as 100% and the “v1 (rate after inhibitor)” value is 0 nM/min.
In the case of `Cc1cc(=O)oc2cc(NC(=O)[C@H](Cc3ccccc3)NC(=O)[C@H](C)NC(=O)[C@H](C)NC(=O)CCC(=O)O)ccc12` [Suc-Ala-Ala-Phe-NHMec] (Suc-Ala-Ala-Phe-{AMC}), the Rate is 0.03 nM/min in test [3] and “No activity” in test [4].
As to Aprotinin, in test [1] (setting [10]), the “% Inhibition” value turned out to be 89.6% and the “v1 (rate after inhibitor)” value stood at 0.292 nM/min.
`Cc1cc(=O)oc2cc(NC(=O)[C@H](Cc3ccccc3)NC(=O)[C@@H]3CCCN3C(=O)[C@H](C)NC(=O)[C@H](C)NC(=O)CCC(=O)O)ccc12` [Suc-Ala-Ala-Pro-Phe-NHMec] (Suc-AAPF-{AMC}): the Rate is on record as 0.05 nM/min in test [3] and 0.04 nM/min in test [4].
Turning to `Cc1cc(=O)oc2cc(NC(=O)[C@H](CCCN=C(N)N)NC(=O)CNC(=O)CNC(=O)OCc3ccccc3)ccc12` [Z-Gly-Gly-Arg-NHMec], the Rate is 1.35 nM/min in test [3]; 0.87 nM/min in [4]; 1.47 nM/min in the test with cat fur enzyme(s) ([Substrate] 5 μM); 2.42 nM/min with cat fur enzyme(s) ([Substrate] 10 μM); 3.41 nM/min in the test on cat fur enzyme(s) ([Substrate] 20 μM); 4.82 nM/min and 8.84 nM/min with cat fur enzyme(s) ([Substrate] 40 μM). The Rate with cat fur enzyme(s) ([Substrate] 60 μM) came out at 10.01 nM/min; in the test with cat fur enzyme(s) ([Substrate] 80 μM), 13.27 nM/min; in the test with cat fur enzyme(s) ([Substrate] 100 μM) it was 11.40 nM/min; with cat fur enzyme(s) ([Substrate] 125 μM), 13.49 nM/min. Besides, in the test with cat fur enzyme(s) (non-linear regression, Enzfitter, rough estimate), the Km – broadly, the concentration of substrate that gives half-maximal velocity – is 95 ± 47 µM.
Take `Cc1cc(=O)oc2cc(NC(=O)[C@H](C)NC(=O)[C@H](C)NC(=O)[C@H](C)NC(=O)CCC(=O)O)ccc12` [Suc-Ala-Ala-Ala-NHMec]: the Rate entry in [3] and in test [4] was “No activity” throughout.
As to `Cc1cc(=O)oc2cc(NC(=O)[C@H](CCCN=C(N)N)NC(=O)[C@H](CCCCN)NC(=O)[C@@H](NC(=O)[C@H](CCCN=C(N)N)NC(=O)[C@@H]3CCC(=O)N3)[C@@H](C)O)ccc12` [Pyr-Arg-Thr-Lys-Arg-NHMec] ([pGlu]RTKR-{AMC}), the Rate in [3] is given as 0.33 nM/min; in [4], 0.58 nM/min.
In the case of `CC(C)C[C@H](NC(=O)[C@H]1O[C@@H]1C(=O)O)C(=O)NCCCCN=C(N)N` (relative stereo) [E64, L-trans epoxysuccinyl-leucylamido-4-guanidino-butane], in [1] (setting [10]), the “% Inhibition” value was determined as 20.4% and the “v1 (rate after inhibitor)” value stood at 2.005 nM/min.
